Assay results taken from US9499550B2 (BRISTOL-MYERS SQUIBB COMPANY, priority 2012, dated 2016).
Read-outs that look alike come from different tables or passages of the source.

Key:
[1] = test system: HCV genotype 1a (H77 strain) replicon in HUH-7 cells; experiment: HCV replicon luciferase reporter assay, genotype 1a; type: cell-based; details: Hepatitis C virus, Huh-7, 72 h, 3 days incubation
Procedure, shortened: (§1)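 Replicon inhibition for both genotypes was measured as Renilla luciferase signal (EnduRen, 7.5 μM final, 2 h) after 3-day, 37° C exposure of replicon-bearing HUH-7 cells in 4% FCS DMEM, 0.5% DMSO. The 1b construct carries S1179I; the 1a H77 construct carries P1496L and S2204I. Twenty-point, 3-fold dilutions were fitted four-parametrically for EC50, and CC50 was taken from multiplexed Cell Titer-Blue.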

[2] = test system: HCV genotype 1b (Con1) replicon in HUH-7 cells; experiment: HCV replicon luciferase reporter assay, genotype 1b; type: cell-based; details: Hepatitis C virus, Huh-7, 72 h, 3 days incubation
Procedure, shortened: as §1

[3] = HCV genotype 1a replicon luciferase, read-out: LE_1a (EC50, range)
[4] = HCV genotype 1b replicon luciferase, read-out: LE_1b (EC50, range)
[5] = GETYPE1A, HCV genotype 1a replicon luciferase, read-out: LE_1a (EC50, range)
[6] = GETYPE1B, HCV genotype 1b replicon luciferase, read-out: LE_1b (EC50, range)
[7] = HCV genotype 1a replicon luciferase assay, range class, read-out: LE_1a (EC50, range)
[8] = HCV genotype 1b replicon luciferase assay, range class, read-out: LE_1b (EC50, range)

Compound: CCCOc1cnc(O[C@@H]2C[C@H]3C(=O)N[C@]4(C(=O)NS(=O)(=O)C5CC5)C[C@H]4/C=C\CC[C@H](C)C[C@@H](C)[C@H](NC(=O)OCC4(C)CC4)C(=O)N3C2)c2ccccc12 [Compound 5096, (1-methylcyclopropyl)methyl ((2R,6S,7R,9S,13aS,14aR,16aS,Z)-14a-((cyclopropylsulfonyl)carbamoyl)-7,9-dimethyl-5,16-dioxo-2-((4-propoxyisoquinolin-1-yl)oxy)-1,2,3,5,6,7,8,9,10,11,13a,14,14a,15,16,16a-hexadecahydrocyclopropa[e]pyrrolo[1,2-a][1,4]diazacyclopentadecin-6-yl)carbamate]
- EC50 [1, 3]: > 87.4 nM
- EC50 [2, 4]: 4.82 to 103 nM

Compound: COc1cc2nc(C(F)(F)F)c(OC)nc2cc1O[C@@H]1C[C@H]2C(=O)N[C@]3(C(=O)NS(=O)(=O)C4(C)CC4)C[C@H]3/C=C\CC[C@H](C)C[C@@H](C)[C@H](NC(=O)OC(C)(C)C(F)(F)F)C(=O)N2C1 [Compound 4354]
- EC50 [1, 5]: 35 to 620 nM
- EC50 [2, 6]: 35 to 620 nM

Compound: COc1cnc(O[C@@H]2C[C@H]3C(=O)N[C@]4(C(=O)NS(=O)(=O)C5CCC5)C[C@H]4/C=C\CC[C@H](C)C[C@@H](C)[C@H](NC(=O)OC(C)(C)C(F)(F)F)C(=O)N3C2)c2ccccc12 [Compound 5353, 1,1,1-trifluoro-2-methylpropan-2-yl((2R,6S,7R,9S,13aS,14aR,16aS,Z)-14a-((cyclobutylsulfonyl)carbamoyl)-2-((4-methoxyisoquinolin-1-yl)oxy)-7,9-dimethyl-5,16-dioxo-1,2,3,5,6,7,8,9,10,11,13a,14,14a,15,16,16a-hexadecahydrocyclopropa[e]pyrrolo[1,2-a][1,4]diazacyclopentadecin-6-yl)carbamate]
- EC50 [1, 3]: 4.82 to 103 nM
- EC50 [2, 4]: < 5.46 nM

Compound: COc1ccc2c(O[C@@H]3C[C@H]4C(=O)N[C@]5(C(=O)NS(=O)(=O)C6(CF)CC6)C[C@H]5/C=C\CC[C@@H](C)C[C@@H](C)[C@H](NC(=O)OC(C)(C)C(F)(F)F)C(=O)N4C3)ncc(C(F)(F)F)c2c1 [Compound 1175, 1,1,1-trifluoro-2-methylpropan-2-yl((2R,6S,7R,9R,13aS,14aR,16aS,Z)-14a-(((1-(fluoromethyl)cyclopropyl)sulfonyl)carbamoyl)-2-((6-methoxy-4-(trifluoromethyl)isoquinolin-1-yl)oxy)-7,9-dimethyl-5,16-dioxo-1,2,3,5,6,7,8,9,10,11,13a,14,14a,15,16,16a-hexadecahydrocyclopropa[e]pyrrolo[1,2-a][1,4]diazacyclopentadecin-6-yl)carbamate]
- EC50 [1, 7]: < 5.46 nM
- EC50 [2, 8]: < 5.46 nM

Compound: CC[C@@H]1C[C@H](C)CC/C=C\[C@@H]2C[C@@]2(C(=O)NS(=O)(=O)C2(C)CC2)NC(=O)[C@@H]2C[C@@H](Oc3nc4cc(OC(C)C)ccc4nc3C(F)(F)F)CN2C(=O)[C@H]1NC(=O)OC(C)(C)C(F)(F)F [Compound 4350]
- EC50 ([1]; GETYPE1A, HCV genotype 1a replicon luciferase, read-out: LE_1a (EC50)): 1.49 nM
- EC50 [1, 5]: 1.01 to 5 nM
- EC50 ([2]; GETYPE1B, HCV genotype 1b replicon luciferase, read-out: LE_1b (EC50)): 0.88 nM
- EC50 [2, 6]: 0.51 to 1 nM

Compound: COc1ccc2c(O[C@@H]3C[C@H]4C(=O)N[C@]5(C(=O)NS(=O)(=O)C6(CF)CC6)C[C@H]5/C=C\CC[C@@H](C)C[C@@H](C)[C@H](NC(=O)OC(C)(C)C(F)(F)F)C(=O)N4C3)nc(OC)nc2c1 [Compound 3020]
- EC50 ([1]; GETYPE1A, HCV genotype 1a replicon luciferase assay, range class, read-out: LE_1a (EC50, range)): 4.82 to 103 nM
- EC50 ([2]; GETYPE1B, HCV genotype 1b replicon luciferase assay, range class, read-out: LE_1b (EC50, range)): < 5.46 nM

Compound: C[C@@H]1CC/C=C\[C@@H]2C[C@@]2(C(=O)NS(=O)(=O)C2(C)CC2)NC(=O)[C@@H]2C[C@@H](Oc3nccc4c5c(ccc34)N(C)CCO5)CN2C(=O)[C@@H](NC(=O)O[C@@H]2C[C@@H]3C[C@@H]3C2)[C@H](C)C1 [Compound 5300, (1R,3r,5S)-bicyclo[3.1.0]hexan-3-yl((2R,6S,7R,9R,13aS,14aR,16aS,Z)-7,9-dimethyl-2-((4-methyl-3,4-dihydro-2H-[1,4]oxazino[2,3-f]isoquinolin-7-yl)oxy)-14a-(((1-methylcyclopropyl)sulfonyl)carbamoyl)-5,16-dioxo-1,2,3,5,6,7,8,9,10,11,13a,14,14a,15,16,16a-hexadecahydrocyclopropa[e]pyrrolo[1,2-a][1,4]diazacyclopentadecin-6-yl)carbamate]
- EC50 [1, 3]: < 5.46 nM
- EC50 [2, 4]: < 5.46 nM

Compound: CC(C)Oc1cnc(O[C@@H]2C[C@H]3C(=O)N[C@]4(C(=O)NS(=O)(=O)C5CC5)C[C@H]4/C=C\CC[C@@H](C)C[C@@H](C)[C@H](NC(=O)OC(C)(C)C(F)(F)F)C(=O)N3C2)c2cccc(Cl)c12 [Compound 4017]
- EC50 [1, 3]: < 5.46 nM
- EC50 [2, 4]: < 5.46 nM

Compound: COCCOc1cnc(O[C@@H]2C[C@H]3C(=O)N[C@]4(C(=O)NS(=O)(=O)C5(C)CC5)C[C@H]4/C=C\CC[C@H](C)C[C@@H](C)[C@H](NC(=O)OC(C)(C)C(F)(F)F)C(=O)N3C2)c2ccc(OC)cc12 [Compound 1144, 1,1,1-trifluoro-2-methylpropan-2-yl((2R,6S,7R,9S,13aS,14aR,16aS,Z)-2-((6-methoxy-4-(2-methoxyethoxyl)isoquinolin-1-yl)oxy)-7,9-dimethyl-14a-(((1-methylcyclopropyl)sulfonyl)carbamoyl)-5,16-dioxo-1,2,3,5,6,7,8,9,10,11,13a,14,14a,15,16,16a-hexadecahydrocyclopropa[e]pyrrolo[1,2-a][1,4]diazacyclopentadecin-6-yl)carbamate]
- EC50 [1, 7]: < 5.46 nM
- EC50 [2, 8]: < 5.46 nM

Compound: CC[C@@H]1C[C@H](C)CC/C=C\[C@@H]2C[C@@]2(C(=O)NS(=O)(=O)C2(C)CC2)NC(=O)[C@@H]2C[C@@H](Oc3nccc4c(OC)cccc34)CN2C(=O)[C@H]1NC(=O)OC(C)(C)C [Compound 3024, tert-butyl ((2R,6S,7R,9R,13aS,14aR,16aS,Z)-7-ethyl-2-((5-methoxyisoquinolin-1-yl)oxy)-9-methyl-14a-(((1-methylcyclopropyl)sulfonyl)carbamoyl)-5,16-dioxo-1,2,3,5,6,7,8,9,10,11,13a,14,14a,15,16,16a-hexadecahydrocyclopropa[e]pyrrolo[1,2-a][1,4]diazacyclopentadecin-6-yl)carbamate]
- EC50 [1, 7]: < 5.46 nM
- EC50 [2, 8]: < 5.46 nM

Compound: CC[C@@H]1C[C@H](C)CC/C=C\[C@@H]2C[C@@]2(C(=O)NS(=O)(=O)C2CC2)NC(=O)[C@@H]2C[C@@H](Oc3nccc4c5c(ccc34)OCCO5)CN2C(=O)[C@H]1NC(=O)OC(C)(C)C [Compound 5341, tert-butyl ((2R,6S,7R,9R,13aS,14aR,16aS,Z)-14a-((cyclopropylsulfonyl)carbamoyl)-2-((2,3-dihydro-[1,4]dioxino[2,3-f]isoquinolin-7-yl)oxy)-7-ethyl-9-methyl-5,16-dioxo-1,2,3,5,6,7,8,9,10,11,13a,14,14a,15,16,16a-hexadecahydrocyclopropa[e]pyrrolo[1,2-a][1,4]diazacyclopentadecin-6-yl)carbamate]
- EC50 [1, 3]: < 5.46 nM
- EC50 [2, 4]: < 5.46 nM

Compound: CC[C@@H]1C[C@H](C)CC/C=C\[C@@H]2C[C@@]2(C(=O)NS(=O)(=O)C2(C)CC2)NC(=O)[C@@H]2C[C@@H](Oc3nnc(OC)c4ccccc34)CN2C(=O)[C@H]1NC(=O)OC(C)(C)C(F)(F)F [Compound 5018, 1,1,1-trifluoro-2-methylpropan-2-yl((2R,6S,7R,9R,13aS,14aR,16aS,Z)-7-ethyl-2-((4-methoxyphthalazin-1-yl)oxy)-9-methyl-14a-(((1-methylcyclopropyl)sulfonyl)carbamoyl)-5,16-dioxo-1,2,3,5,6,7,8,9,10,11,13a,14,14a,15,16,16a-hexadecahydrocyclopropa[e]pyrrolo[1,2-a][1,4]diazacyclopentadecin-6-yl)carbamate]
- EC50 [1, 3]: < 5.46 nM
- EC50 [2, 4]: < 5.46 nM
